This note sets out measurements from patent publication US20260035407A1, “CYCLIC PEPTIDE DERIVATIVE, METHOD FOR PRODUCING SAME, AND COMPOSITION” (priority 2022, published 2026).

One assay deals with Mouse astrocytes. The experiment in a line: Cell proliferation assay (BrdU method) on mouse astrocytes. Particulars: Astrocyte; mouse astrocytes, compound concentration 50 μM, 24 hours treatment in serum-free DMEM, BrdU; read-out: Cell proliferation activity, proliferative activity (%). The assay is classed as cell-based. As for the experimental part:
A screening test regarding the mouse astrocyte proliferation action of the compound synthesized in the Example described above was performed.
• Cells: Mouse astrocytes • Manufacturer: Cosmo Bio • Catalog No.: AST02C • Medium: 10% FBS, 1% PS, DMEM
• Cell proliferation assay (BrdU method)
Mouse astrocytes were put into sleep in a T-75 flask using a medium (10% FBS, 1% Penicillin-Streptomycin, DMEM (Low Glucose)) and cultured in a CO2 incubator (37° C., 5% CO2, ambient O2, wet, and the same applies below) for 4 days. Medium exchange was performed on the second day after sleep onset. The cells were detached using Trypsin-EDTA (0.05%) and phenol red, neutralized with a medium, and centrifuged (180×g, RT, 5 minutes), then seeded in a 96-well plate at 20,000 cells/0.1 mL/well using a medium, and cultured in a CO2 incubator. On the next day, the medium was replaced with serum-free DMEM (Low Glucose), and the cells were further cultured in a CO2 incubator for 24 hours.
Next, the medium was replaced with serum-free DMEM (Low Glucose) to which the compound was added or with compound-free-serum-free DMEM (Low Glucose), and the cells were further cultured in a CO2 incubator for 24 hours to treat the cells with the compound.
After completion of the compound treatment, cell proliferation assay was performed using Cell Proliferation ELISA, BrdU (colometric) (MERCK, Cat. No. 11647229001). 10 μL of a BrdU labeling solution (prepared by adding a BrdU-labeled reagent to a test substance-treated medium in an amount of 1/100 vol) was added thereto, and the mixture was cultured in a CO2 incubator for 4 hours. Next, after removing the medium, FixDenat was added at 200 μL/well and incubated at room temperature for 30 minutes. Next, FixDenat was removed and a POD-labeled anti-BrdU antibody reaction solution (prepared by adding 1/100 vol of a POD-labeled anti-BrdU antibody stock solution to an antibody diluent) was added at 100 μL/well, and the cells were incubated at room temperature for 2 hours. Next, antibodies were removed, and the wells were washed 3 times with 200 μL/well of a washing liquid. After washing, 100 μL/well of a substrate solution was added, incubation was performed at room temperature for 30 minutes, and an absorbance (370 nm, control wavelength 492 nm) was measured with a plate reader. A difference between the test substance-free group and the test substance-treated group was verified by Dunnett's test in which the test substance-free group was used as a control. The significance level was 5% for both groups.
`CN[C@H]1Cc2ccc(O)c(c2)OC[C@@H](C(=O)N[C@@H](CCC(=O)O)C(=O)O)NC(=O)[C@H](C(C)C)NC1=O` [Compound 5]: the activity at 50 µM fell in the range of 90 to 110%.

The same assay, now with this note: Astrocyte; mouse astrocytes, compound concentration 100 μM, 24 hours treatment in serum-free DMEM, BrdU; read-out: Cell proliferation activity, proliferative activity (%).
Regarding `CC(C)[C@@H]1NC(=O)[C@@H](N)Cc2ccc(O)c(c2)OC[C@@H](C(=O)N[C@@H](CCC(=O)O)C(=O)O)NC1=O` [Compound 8], the activity at 100 µM was in the range of 90 to 110%.

The same assay, now with this note: Astrocyte; mouse astrocytes, compound concentration 200 μM, 24 hours treatment in serum-free DMEM, BrdU; read-out: Cell proliferation activity, proliferative activity (%).
Regarding `CN[C@H]1Cc2ccc(O)c(c2)OC[C@@H](C(=O)N[C@@H](CC(=O)O)C(=O)O)NC(=O)CNC1=O` [Compound 11], the activity at 200 µM fell in the range of 110 to 130%. In the case of `CN[C@H]1Cc2ccc(O)c(c2)OC[C@@H](C(=O)N[C@@H](CCC(=O)O)C(=O)O)NC(=O)CNC1=O` [Compound 3], the activity at 200 µM lay within 90 to 110%.

The assay is the same for the next values; noted with them: Astrocyte; mouse astrocytes, compound concentration 400 μM, 24 hours treatment in serum-free DMEM, BrdU; read-out: Cell proliferation activity, proliferative activity (%).
With `N[C@H]1Cc2ccc(O)c(c2)OC[C@@H](C(=O)N[C@@H](CCC(=O)O)C(=O)O)NC(=O)CNC1=O` [Compound 7], the activity at 400 µM lay within 90 to 110%. Still for that read-out and setting: with `CN[C@H]1Cc2ccc(O)c(c2)O[C@@H](C)[C@@H](C(=O)N[C@@H](CC(=O)O)C(=O)O)NC(=O)CNC1=O` [Compound 12] the figure was 110 to 130%. On the same count and under the same terms, with `CN[C@H]1Cc2ccc(O)c(c2)O[C@@H](C)[C@@H](C(=O)N[C@@H](CCC(=O)O)C(=O)O)NC(=O)CNC1=O` [Compound 4] the figure was 90 to 110%.

The assay is the same for the next values; noted with them: Mus musculus, Astrocyte, 24 h, read-out: Cell proliferation activity, proliferative activity (%).
On to `CC[C@@]1(C)Oc2cc(ccc2O)C[C@H](NC)C(=O)N[C@@H](C(C)C)C(=O)N[C@@H]1C(=O)N[C@H](CCC(=O)O)C(=O)O` [Compound 20], for which the activity at 200 µM fell in the range of 90 to 110%.

On to `CC[C@@]1(C)Oc2cc(ccc2O)C[C@H](N(C)C)C(=O)N[C@@H](C(C)C)C(=O)N[C@@H]1C(=O)N[C@@H](CC(=O)O)C(=O)O` [Compound 39], for which the activity at 100 µM lay in the range of 130 to 150%. Regarding `CC[C@@]1(C)Oc2cc(ccc2O)C[C@H](NC)C(=O)N[C@@H](Cc2ccccc2)C(=O)N[C@@H]1C(=O)N[C@@H](CCC(=O)O)C(=O)O` [Compound 24], the activity at 200 µM was 130 to 150%.

As for `CC[C@@]1(C)Oc2cc(ccc2O)C[C@H](N)C(=O)N[C@@H](C(C)C)C(=O)N[C@@H]1C(=O)N[C@@H](CCC(=O)O)C(=O)O` [Compound 6], the activity at 200 µM fell in the range of 110 to 130%. As for `CC[C@@]1(C)Oc2cc(ccc2O)C[C@H](NC)C(=O)N[C@H](C(C)C)C(=O)N[C@@H]1C(=O)N[C@@H](CC(=O)O)C(=O)O` [Compound 45], the activity at 50 µM is 90 to 110%. `CC[C@@]1(C)Oc2cc(ccc2O)C[C@H](NC)C(=O)N[C@@H](C(C)C)C(=O)N(C)[C@@H]1C(=O)N[C@@H](CC(=O)O)C(=O)O` [Compound 44]: the activity at 200 µM fell in the range of 110 to 130%. As for `CC[C@@]1(C)Oc2cc(ccc2O)C[C@H](NC)C(=O)N[C@@H](CCCNC(=N)N)C(=O)N[C@@H]1C(=O)N[C@@H](CCC(=O)O)C(=O)O` [Compound 31], the activity at 100 µM fell in the range of 110 to 130%. In the case of `CC[C@@]1(C)Oc2cc(ccc2O)C[C@H](NC)C(=O)N[C@@H]([C@@H](C)O)C(=O)N[C@@H]1C(=O)N[C@@H](CCC(=O)O)C(=O)O` [Compound 28], the activity at 50 µM was in the range of 110 to 130%. Still for that read-out and setting: as for `CC[C@@]1(C)Oc2cc(ccc2O)C[C@H](NC)C(=O)N[C@@H](C(C)C)C(=O)N[C@@H]1C(=O)NCCCC(=O)O` [Compound 18], the figure is 90 to 110%. For the compound `CC[C@@]1(C)Oc2cc(ccc2O)C[C@H](NC)C(=O)N[C@@H](C(C)C)C(=O)N[C@@H]1C(=O)N[C@@H](CC(=O)O)C(=O)O` [Compound 9], the activity at 200 µM is above 150%.

In the case of `CC[C@@]1(C)Oc2cc(ccc2OC)C[C@H](NC)C(=O)N[C@@H](C(C)C)C(=O)N[C@@H]1C(=O)N[C@@H](CCC(=O)O)C(=O)O` [Compound 37], the activity at 100 µM is 110 to 130%. For the compound `CN[C@H]1Cc2ccc(O)c(c2)OC(C)(C)[C@@H](C(=O)N[C@@H](CCC(=O)O)C(=O)O)NC(=O)[C@H](C(C)C)NC1=O` [Compound 16], the activity at 200 µM was in the range of 130 to 150%.

Take `CC[C@@]1(C)Oc2cc(ccc2O)C[C@H](NC)C(=O)N[C@@H](C(C)C)C(=O)N[C@@H]1C(=O)N[C@H](CC(=O)O)C(=O)O` [Compound 21]: the activity at 50 µM is 90 to 110%. Consider `CC[C@@]1(C)Oc2cc(ccc2O)C[C@H](NC)C(=O)NCC(=O)N[C@@H]1C(=O)N[C@@H](CCC(=O)O)C(=O)O` [Compound 2], for which the activity at 25 µM is 110 to 130%. In the case of `CC[C@@]1(C)Oc2cc(ccc2O)C[C@H](N(C)C)C(=O)N[C@@H](CCC(=O)O)C(=O)N[C@@H]1C(=O)N[C@@H](CCC(=O)O)C(=O)O` [Compound 40], the activity at 50 µM is 90 to 110%.

Turning to `CC[C@@]1(C)Oc2cc(ccc2O)C[C@H](NC)C(=O)N[C@@H](CCC(=O)O)C(=O)N[C@@H]1C(=O)N[C@@H](CCC(=O)O)C(=O)O` [Compound 25], the activity at 50 µM was in the range of 90 to 110%. As to `CC[C@@]1(C)Nc2cc(ccc2O)C[C@H](NC)C(=O)N[C@@H](C(C)C)C(=O)N[C@@H]1C(=O)N[C@@H](CCC(=O)O)C(=O)O` [Compound 22], the activity at 200 µM lay within 90 to 110%.

Turning to `CC[C@@]1(C)Oc2cc(ccc2O)C[C@H](NC)C(=O)N[C@@H](CO)C(=O)N[C@@H]1C(=O)N[C@@H](CCC(=O)O)C(=O)O` [Compound 27], the activity at 200 µM is 90 to 110%. Take `CC[C@@]1(C)Oc2cc(ccc2O)C[C@H](NC)C(=O)N(C)[C@@H](C(C)C)C(=O)N[C@@H]1C(=O)N[C@@H](CC(=O)O)C(=O)O` [Compound 41]: the activity at 50 µM was 90 to 110%. The same measure, in the same setting: as for `CC[C@H](C)[C@@H]1NC(=O)[C@@H](NC)Cc2ccc(O)c(c2)O[C@](C)(CC)[C@@H](C(=O)N[C@@H](CCC(=O)O)C(=O)O)NC1=O` [Compound 50], the figure is 130 to 150%. On to `CC[C@@]1(C)Oc2cccc(c2)C[C@H](N)C(=O)NCC(=O)N[C@@H]1C(=O)N[C@@H](CCC(=O)O)C(=O)O` [Compound 13], for which the activity at 200 µM lay within 110 to 130%. As to `CC[C@@]1(C)Oc2cc(ccc2O)C[C@H](NC)C(=O)NCC(=O)N[C@@H]1C(=O)N[C@@H](CC(=O)O)C(=O)O` [Compound 10], the activity at 100 µM is 110 to 130%. For `CC[C@@]1(C)Oc2cc(ccc2O)C[C@H](N)C(=O)N[C@@H](C(C)C)C(=O)N[C@@H]1C(=O)N[C@@H](CC(=O)O)C(=O)O` [Compound 15], the activity at 200 µM was in the range of 90 to 110%. Regarding `CC[C@@]1(C)Oc2cc(ccc2O)C[C@H](N(C)C)C(=O)N[C@@H](C(C)C)C(=O)N[C@@H]1C(=O)N[C@@H](CCC(=O)O)C(=O)O` [Compound 23], the activity at 1000 µM lay in the range of 130 to 150%. For `CC[C@@]1(C)Oc2cc(ccc2O)C[C@H](NC)C(=O)N[C@@H](Cc2ccc(O)cc2)C(=O)N[C@@H]1C(=O)N[C@@H](CCC(=O)O)C(=O)O` [Compound 29], the activity at 200 µM was 90 to 110%. Take `CC[C@@]1(C)Oc2cc(ccc2O)C[C@H](NC)C(=O)N[C@@H](C(C)C)C(=O)N(C)[C@@H]1C(=O)N[C@@H](CCC(=O)O)C(=O)O` [Compound 43]: the activity at 100 µM lay in the range of 110 to 130%. The same measure, in the same setting: with `CC[C@@]1(C)Oc2cc(ccc2O)C[C@H](NC)C(=O)N[C@@H](C)C(=O)N[C@@H]1C(=O)N[C@@H](CCC(=O)O)C(=O)O` [Compound 48] the figure was 110 to 130%. For `CN[C@H]1Cc2ccc(O)c(c2)OC(C)(C)[C@@H](C(=O)N[C@@H](CC(=O)O)C(=O)O)NC(=O)[C@H](C(C)C)NC1=O` [Compound 17], the activity at 25 µM lay within 90 to 110%. `CC[C@@]1(C)Oc2cc(ccc2O)C[C@H](NC)C(=O)N[C@@H](CC(C)C)C(=O)N[C@@H]1C(=O)N[C@@H](CCC(=O)O)C(=O)O` [Compound 49]: the activity at 200 µM is 110 to 130%. Still for that read-out and setting: with `CC[C@@]1(C)Oc2cc(ccc2O)C[C@H](NC)C(=O)N(C)[C@@H](C(C)C)C(=O)N[C@@H]1C(=O)N[C@@H](CCC(=O)O)C(=O)O` [Compound 42] the figure was 130 to 150%; with `CC[C@@]1(C)Oc2cccc(c2)C[C@H](NC)C(=O)N[C@@H](C(C)C)C(=O)N[C@@H]1C(=O)N[C@@H](CCC(=O)O)C(=O)O` [Compound 14], 110 to 130%. The same measure, in the same setting: as for `CC(C)[C@@H]1NC(=O)[C@@H](N)Cc2ccc(O)c(c2)OC(C)(C)[C@@H](C(=O)N[C@@H](CCC(=O)O)C(=O)O)NC1=O` [Compound 19], the figure is 110 to 130%; as for `CC[C@@]1(C)Oc2cc(ccc2O)C[C@H](NC)C(=O)N[C@@H](C(C)C)C(=O)N[C@@H]1C(=O)N(C)[C@@H](CC(=O)O)C(=O)O` [Compound 47], 130 to 150%. Take `CC[C@@]1(C)Oc2cc(ccc2O)C[C@H](NC)C(=O)N[C@@H](C(C)C)C(=O)N[C@@H]1C(=O)N[C@@H](CCC(=O)O)C(=O)O` [Compound 1]: the activity at 25 µM is above 150%.
